The numbers were not newly measured in patent publication US8222218B2, “Cyclopropanated carbohydrates” (Seton Hall University, priority 2008, dated 2012), which cites them from elsewhere.

Data set [1] deals with metabotropic glutamate receptors. Particulars: background; cited from earlier work.
The conditions of data set [2]: background, previously made and tested; cited from earlier work.

With “7-(hydroxyimino)cyclopropa[b]chromen-1a-carboxylate [Compound C]”, the “agonist activity at metabotropic glutamate receptors” value in data set [1] is recorded as “active agonists”.

Consider `CNS(=O)(=O)OC[C@@]12OC[C@H]3OC(C)(C)O[C@H]3[C@@H]1OC(C)(C)O2` [A], for which, in data set [2], the “anticonvulsant activity” value is “moderate anticonvulsant activity”.

For `CC1(C)OC[C@@H]2O[C@@]3(COS(N)(=O)=O)OC(C)(C)O[C@H]3[C@@H]2O1` [B], the “anticonvulsant activity” value in data set [2] was “moderate anticonvulsant activity”.

Turning to `CC1(C)O[C@@H]2[C@@H](CO[C@@]3(COS(N)(=O)=O)OC(C)(C)O[C@@H]23)O1` [topiramate], in data set [2], the “anticonvulsant activity” value is “greater anticonvulsant activity”.
